# System: Sprague-Dawley rats
# Assay: Clinical chemistry
# Assay type: in vivo, Rattus norvegicus
# Parameters: key to Cholesterol, Dose response / Triglyserides, Dose response / Glucose, Dose response / Albumin, Dose response / K, Dose response / Total bilirubin, Dose response: D: significant dose response (for results, see Table 2); T: significant trend
# Settings: for Alkaline phosphatase, CED / Alkaline phosphatase, CED-L / Chlolesterol, CED / Chlolesterol, CED-L / Glucose, CED / Glucose, CED-L / Potassium, CED / Potassium, CED-L / Total Bilirubin, CED / Total Bilirubin, CED-L / Albumin, CED / Albumin, CED-L / Total protein, CED / Total protein, CED-L / Triglycerides, CED / Triglycerides, CED-L: total dose based
# Procedure: Spectrophotometric methods were used for the determination of serum total calcium, cholesterol, creatinine, glucose, triglycerides and urea. Serum sodium, potassium and chloride concentrations were measured directly by ion selective electrodes. The analyses were performed by a clinical chemistry analyzer (Konelab 30i, ThermoFisher Scientific, Vantaa, Finland). Plasma lactate dehydrogenase (LD) activity was measured according to the recommendations of the International Federation of Clinical Chemistry (IFCC 1994/I) using Konelab 60i clinical chemistry analyzer. Methods and results for liver related parameters (serum alanine aminotransferase [ALT] activity, alkaline phosphatase [ALP] activity, albumin, total protein and total bilirubin are reported separately.
# Data were also analyzed using the BMD method, which is based on dose-response modeling of the full data set using a nested family of exponential and Hill models. The analyses were done on data of males and females combined, using sex as a covariate. […] In that case, different Critical Effect Doses (CEDs) and CEDs at the lowest bound of the confidence interval (CED-L) were generated for each sex. If no difference between sexes is detected, a CED and CED-Ls for the combined data is generated. However, this was also done if the curve fits are close, and separate analyses for males and females were then performed manually. CEDs and CED-Ls were calculated at the predefined Critical Effect Size (CES) of 5% (EFSA standard) or 10%.
# [1] = females, total dose 1700 mg/kg bw
# [2] = females, adipose tissue concentration based
# [3] = males, total dose 0-1700 mg/kg bw
# [4] = males, total dose 1000 mg/kg bw
# [5] = males, total dose 1700 mg/kg bw
# [6] = males, adipose tissue concentration based
smiles,measurement,setting,value
"Clc1cc(Cl)c(-c2cc(Cl)c(Cl)c(Cl)c2Cl)cc1Cl [PCB 180, 2,2′,3′,4,4′,5,5′-heptachlorobiphenyl]",Creatinine,[1],52.5 µmol/L
same,Glucose,[1],12.4 mmol/L
same,K,[1],5.30 mmol/L
same,Na,[1],143.2 mmol/L
same,Total Ca,[1],3.49 mmol/L
same,Total bilirubin,[1],1.37 µmol/L
same,Triglyserides,[1],0.88 mmol/L
same,Urea,[1],10.0 mmol/L
same,"Alkaline phosphatase, CED","females, CES 5%",67.6 mg/kg bw
same,"Alkaline phosphatase, CED-L","females, CES 5%",30.1 mg/kg bw
same,"Chlolesterol, CED","females, CES 5%",192 mg/kg bw
same,"Chlolesterol, CED-L","females, CES 5%",167 mg/kg bw
same,"Glucose, CED","females, CES 5%",677 mg/kg bw
same,"Glucose, CED-L","females, CES 5%",408 mg/kg bw
same,"Potassium, CED","females, CES 5%",1210 mg/kg bw
same,"Potassium, CED-L","females, CES 5%",786 mg/kg bw
same,"Total Bilirubin, CED","females, CES 5%",4.12 mg/kg bw
same,"Total Bilirubin, CED-L","females, CES 5%",0.67 mg/kg bw
same,"Alkaline phosphatase, CED","females, CES 10%",154 mg/kg bw
same,"Alkaline phosphatase, CED-L","females, CES 10%",68.5 mg/kg bw
same,"Chlolesterol, CED","females, CES 10%",375 mg/kg bw
same,"Chlolesterol, CED-L","females, CES 10%",326 mg/kg bw
same,"Glucose, CED","females, CES 10%",1390 mg/kg bw
same,"Glucose, CED-L","females, CES 10%",839 mg/kg bw
same,"Potassium, CED","females, CES 10%",2490 mg/kg bw
same,"Potassium, CED-L","females, CES 10%",1614 mg/kg bw
same,"Total Bilirubin, CED","females, CES 10%",10.3 mg/kg bw
same,"Total Bilirubin, CED-L","females, CES 10%",1.63 mg/kg bw
same,"Serum ALP activity, CED",[2],308 µg/g lipid
same,"Serum cholesterol, CED",[2],640 µg/g lipid
same,"Albumin, Dose response",[3],T
same,"Cholesterol, Dose response",[3],T
same,"Glucose, Dose response",[3],T
same,"Triglyserides, Dose response",[3],T
same,Albumin,"males, total dose 3 mg/kg bw",32.6 g/L
same,Cholesterol,"males, total dose 3 mg/kg bw",2.72 mmol/L
same,Cl,"males, total dose 3 mg/kg bw",96.9 mmol/L
same,Creatinine,"males, total dose 3 mg/kg bw",54.2 µmol/L
same,Glucose,"males, total dose 3 mg/kg bw",18.9 mmol/L
same,K,"males, total dose 3 mg/kg bw",5.76 mmol/L
same,Na,"males, total dose 3 mg/kg bw",143.1 mmol/L
same,Total Ca,"males, total dose 3 mg/kg bw",3.43 mmol/L
same,Total bilirubin,"males, total dose 3 mg/kg bw",2.02 µmol/L
same,Triglyserides,"males, total dose 3 mg/kg bw",0.84 mmol/L
same,Urea,"males, total dose 3 mg/kg bw",9.0 mmol/L
same,Albumin,"males, total dose 10 mg/kg bw",32.9 g/L
same,Cholesterol,"males, total dose 10 mg/kg bw",2.84 mmol/L
same,Cl,"males, total dose 10 mg/kg bw",96.8 mmol/L
same,Creatinine,"males, total dose 10 mg/kg bw",51.5 µmol/L
same,Glucose,"males, total dose 10 mg/kg bw",14.9 mmol/L
same,K,"males, total dose 10 mg/kg bw",6.12 mmol/L
same,Na,"males, total dose 10 mg/kg bw",143.0 mmol/L
same,Total Ca,"males, total dose 10 mg/kg bw",3.41 mmol/L
same,Total bilirubin,"males, total dose 10 mg/kg bw",1.58 µmol/L
same,Triglyserides,"males, total dose 10 mg/kg bw",0.88 mmol/L
same,Urea,"males, total dose 10 mg/kg bw",8.2 mmol/L
same,Albumin,"males, total dose 30 mg/kg bw",32.8 g/L
same,Cholesterol,"males, total dose 30 mg/kg bw",2.74 mmol/L
same,Cl,"males, total dose 30 mg/kg bw",96.0 mmol/L
same,Creatinine,"males, total dose 30 mg/kg bw",53.8 µmol/L
same,Glucose,"males, total dose 30 mg/kg bw",18.6 mmol/L
same,K,"males, total dose 30 mg/kg bw",5.93 mmol/L
same,Na,"males, total dose 30 mg/kg bw",142.9 mmol/L
same,Total Ca,"males, total dose 30 mg/kg bw",3.44 mmol/L
same,Total bilirubin,"males, total dose 30 mg/kg bw",1.46 µmol/L
same,Triglyserides,"males, total dose 30 mg/kg bw",0.65 mmol/L
same,Urea,"males, total dose 30 mg/kg bw",9.3 mmol/L
same,Albumin,"males, total dose 100 mg/kg bw",33.1 g/L
same,Cholesterol,"males, total dose 100 mg/kg bw",3.56 mmol/L
same,Cl,"males, total dose 100 mg/kg bw",96.3 mmol/L
same,Creatinine,"males, total dose 100 mg/kg bw",53.4 µmol/L
same,Glucose,"males, total dose 100 mg/kg bw",17.8 mmol/L
same,K,"males, total dose 100 mg/kg bw",5.74 mmol/L
same,Na,"males, total dose 100 mg/kg bw",143.0 mmol/L
same,Total Ca,"males, total dose 100 mg/kg bw",3.58 mmol/L
same,Total bilirubin,"males, total dose 100 mg/kg bw",1.54 µmol/L
same,Triglyserides,"males, total dose 100 mg/kg bw",0.34 mmol/L
same,Urea,"males, total dose 100 mg/kg bw",9.2 mmol/L
same,Albumin,"males, total dose 300 mg/kg bw",32.5 g/L
same,Cholesterol,"males, total dose 300 mg/kg bw",3.44 mmol/L
same,Cl,"males, total dose 300 mg/kg bw",96.3 mmol/L
same,Creatinine,"males, total dose 300 mg/kg bw",52.6 µmol/L
same,Glucose,"males, total dose 300 mg/kg bw",17.7 mmol/L
same,K,"males, total dose 300 mg/kg bw",5.73 mmol/L
same,Na,"males, total dose 300 mg/kg bw",142.7 mmol/L
same,Total Ca,"males, total dose 300 mg/kg bw",3.46 mmol/L
same,Total bilirubin,"males, total dose 300 mg/kg bw",1.73 µmol/L
same,Triglyserides,"males, total dose 300 mg/kg bw",0.36 mmol/L
same,Urea,"males, total dose 300 mg/kg bw",9.0 mmol/L
same,Albumin,[4],34.2 g/L
same,Cholesterol,[4],4.35 mmol/L
same,Cl,[4],95.7 mmol/L
same,Creatinine,[4],53.8 µmol/L
same,Glucose,[4],11.8 mmol/L
same,K,[4],6.12 mmol/L
same,Na,[4],142.6 mmol/L
same,Total Ca,[4],3.45 mmol/L
same,Total bilirubin,[4],1.84 µmol/L
same,Triglyserides,[4],0.32 mmol/L
same,Urea,[4],9.9 mmol/L
same,Albumin,[5],34.4 g/L
same,Cholesterol,[5],5.15 mmol/L
same,Cl,[5],97.7 mmol/L
same,Creatinine,[5],55.4 µmol/L
same,Glucose,[5],12.7 mmol/L
same,K,[5],5.89 mmol/L
same,Na,[5],143.4 mmol/L
same,Total Ca,[5],3.53 mmol/L
same,Total bilirubin,[5],1.87 µmol/L
same,Triglyserides,[5],0.44 mmol/L
same,Urea,[5],9.1 mmol/L
same,"Albumin, CED","males, CES 5%",1550 mg/kg bw
same,"Albumin, CED-L","males, CES 5%",1090 mg/kg bw
same,"Alkaline phosphatase, CED","males, CES 5%",542 mg/kg bw
same,"Alkaline phosphatase, CED-L","males, CES 5%",327 mg/kg bw
same,"Chlolesterol, CED","males, CES 5%",38.3 mg/kg bw
same,"Chlolesterol, CED-L","males, CES 5%",19.5 mg/kg bw
same,"Glucose, CED","males, CES 5%",198 mg/kg bw
same,"Glucose, CED-L","males, CES 5%",146 mg/kg bw
same,"Total protein, CED","males, CES 5%",255 mg/kg bw
same,"Total protein, CED-L","males, CES 5%",134 mg/kg bw
same,"Triglycerides, CED","males, CES 5%",3.31 mg/kg bw
same,"Triglycerides, CED-L","males, CES 5%",1.90 mg/kg bw
same,"Albumin, CED","males, CES 10%",3040 mg/kg bw
same,"Albumin, CED-L","males, CES 10%",2130 mg/kg bw
same,"Alkaline phosphatase, CED","males, CES 10%",1110 mg/kg bw
same,"Alkaline phosphatase, CED-L","males, CES 10%",672 mg/kg bw
same,"Chlolesterol, CED","males, CES 10%",79.0 mg/kg bw
same,"Chlolesterol, CED-L","males, CES 10%",40.4 mg/kg bw
same,"Glucose, CED","males, CES 10%",408 mg/kg bw
same,"Glucose, CED-L","males, CES 10%",300 mg/kg bw
same,"Total protein, CED","males, CES 10%",702 mg/kg bw
same,"Total protein, CED-L","males, CES 10%",379 mg/kg bw
same,"Triglycerides, CED","males, CES 10%",6.92 mg/kg bw
same,"Triglycerides, CED-L","males, CES 10%",3.97 mg/kg bw
same,"Serum chlolesterol, CED-L",[6],91400 ng/g lipid
same,"Serum cholesterol, CED",[6],177 µg/g lipid
same,"Serum total protein, CED",[6],1080 µg/g lipid
same,"Serum triglyceride, CED",[6],12.5 µg/g lipid
same,"Serum triglycerids, CED-L",[6],7260 ng/g lipid

# Source: paper PMC4138103 (PLoS ONE, 2014)
